Test in all cases: Cysteine liganding, probe competition
Assay type in all cases: binding

The target of assay [1] is T1, MAPK8 Mitogen-activated protein kinase 8 (Homo sapiens, UniProt P45983).
T1 construct: Cells were resuspended in cold PBS on ice and sonicated with a probe sonicator to achieve lysis; endogenous in cells
The following applies: for 100 Max / 100 ave / 500 ave / 500 Max: uniprot P45983; for 500 Max: in % (unit assumed). An outline of the steps:
(§1)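 Steps: sonicate cells in cold PBS; treat 5 mg/ml lysate with compound (25° C, 1 hr); add desthiobiotin iodoacetamide probe from a 10 mM stock (25° C, 1 hr); precipitate, reduce, alkylate, digest with trypsin; capture labelled peptides on streptavidin for analysis.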

Assay [2] deals with T2, MT-ND5 NADH-ubiquinone oxidoreductase chain 5 (Homo sapiens, UniProt P03915).
T2 construct: Cells were resuspended in cold PBS on ice and sonicated with a probe sonicator to achieve lysis; endogenous in cells
T2 sequence (P03915 whole entry): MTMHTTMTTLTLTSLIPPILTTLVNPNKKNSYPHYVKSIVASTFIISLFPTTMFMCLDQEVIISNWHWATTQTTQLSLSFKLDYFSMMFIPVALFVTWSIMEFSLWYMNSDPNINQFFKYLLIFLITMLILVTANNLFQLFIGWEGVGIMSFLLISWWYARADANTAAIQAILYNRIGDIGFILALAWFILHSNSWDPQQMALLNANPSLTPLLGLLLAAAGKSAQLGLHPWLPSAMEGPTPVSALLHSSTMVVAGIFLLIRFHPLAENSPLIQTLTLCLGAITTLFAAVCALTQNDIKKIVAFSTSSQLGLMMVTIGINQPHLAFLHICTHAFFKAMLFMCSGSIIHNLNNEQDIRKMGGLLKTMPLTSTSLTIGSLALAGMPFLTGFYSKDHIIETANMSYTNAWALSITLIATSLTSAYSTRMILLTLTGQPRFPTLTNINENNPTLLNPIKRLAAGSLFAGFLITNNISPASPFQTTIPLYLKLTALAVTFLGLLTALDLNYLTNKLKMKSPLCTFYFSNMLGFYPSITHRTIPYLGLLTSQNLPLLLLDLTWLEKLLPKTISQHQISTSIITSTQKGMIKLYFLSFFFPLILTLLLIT
Conditions: for Liganded: MT-ND5 Res# 518, uniprot P03915. An outline of the steps: as §1

Assay [3] concerns the target T3, PDCD11 Protein RRP5 homolog (Homo sapiens, UniProt Q14690).
T3 construct: Cells were resuspended in cold PBS on ice and sonicated with a probe sonicator to achieve lysis; endogenous in cells
An outline of the steps:
as §1

Another assay has as its target T4, SNX8 Sorting nexin-8 (Homo sapiens, UniProt Q9Y5X2).
T4 construct: Cells were resuspended in cold PBS on ice and sonicated with a probe sonicator to achieve lysis; endogenous in cells
T4 sequence (Q9Y5X2 1-465): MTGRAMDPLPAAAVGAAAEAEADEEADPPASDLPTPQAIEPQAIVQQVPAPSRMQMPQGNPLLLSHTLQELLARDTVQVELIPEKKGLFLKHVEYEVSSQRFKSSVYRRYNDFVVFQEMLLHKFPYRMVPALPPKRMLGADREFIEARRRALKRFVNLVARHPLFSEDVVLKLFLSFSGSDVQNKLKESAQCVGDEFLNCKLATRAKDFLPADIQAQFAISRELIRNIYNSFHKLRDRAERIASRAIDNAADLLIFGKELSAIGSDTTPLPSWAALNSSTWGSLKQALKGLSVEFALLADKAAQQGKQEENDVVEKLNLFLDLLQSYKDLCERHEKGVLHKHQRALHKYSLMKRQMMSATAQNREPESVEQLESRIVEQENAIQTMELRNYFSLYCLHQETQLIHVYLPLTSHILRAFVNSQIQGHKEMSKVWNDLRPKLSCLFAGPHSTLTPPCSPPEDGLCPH
An outline of the steps:
as §1

Assay [4] addresses T5, TBC1D15 TBC1 domain family member 15 (Homo sapiens, UniProt Q8TC07).
T5 construct: Cells were resuspended in cold PBS on ice and sonicated with a probe sonicator to achieve lysis; endogenous in cells
T5 sequence (Q8TC07 1-691): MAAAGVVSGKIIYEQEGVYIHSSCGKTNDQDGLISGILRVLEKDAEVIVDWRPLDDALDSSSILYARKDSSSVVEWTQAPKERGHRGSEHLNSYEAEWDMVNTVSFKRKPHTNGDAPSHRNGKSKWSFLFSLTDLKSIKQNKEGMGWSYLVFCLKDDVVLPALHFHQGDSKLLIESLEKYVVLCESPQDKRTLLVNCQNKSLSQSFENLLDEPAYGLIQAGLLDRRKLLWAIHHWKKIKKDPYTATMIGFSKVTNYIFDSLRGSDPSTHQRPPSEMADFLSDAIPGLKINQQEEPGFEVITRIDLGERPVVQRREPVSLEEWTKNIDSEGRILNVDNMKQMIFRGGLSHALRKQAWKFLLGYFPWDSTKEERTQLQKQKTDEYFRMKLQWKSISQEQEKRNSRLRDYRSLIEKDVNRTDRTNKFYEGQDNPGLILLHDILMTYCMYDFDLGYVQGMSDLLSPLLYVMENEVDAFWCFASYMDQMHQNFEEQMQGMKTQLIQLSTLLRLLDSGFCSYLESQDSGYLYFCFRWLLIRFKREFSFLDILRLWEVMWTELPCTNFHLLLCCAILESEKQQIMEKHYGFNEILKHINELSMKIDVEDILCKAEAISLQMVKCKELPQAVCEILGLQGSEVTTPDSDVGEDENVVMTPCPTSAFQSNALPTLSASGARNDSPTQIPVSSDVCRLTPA
An outline of the steps: as §1

The structures appear in SMILES notation.

T1 sequence (P45983 whole entry): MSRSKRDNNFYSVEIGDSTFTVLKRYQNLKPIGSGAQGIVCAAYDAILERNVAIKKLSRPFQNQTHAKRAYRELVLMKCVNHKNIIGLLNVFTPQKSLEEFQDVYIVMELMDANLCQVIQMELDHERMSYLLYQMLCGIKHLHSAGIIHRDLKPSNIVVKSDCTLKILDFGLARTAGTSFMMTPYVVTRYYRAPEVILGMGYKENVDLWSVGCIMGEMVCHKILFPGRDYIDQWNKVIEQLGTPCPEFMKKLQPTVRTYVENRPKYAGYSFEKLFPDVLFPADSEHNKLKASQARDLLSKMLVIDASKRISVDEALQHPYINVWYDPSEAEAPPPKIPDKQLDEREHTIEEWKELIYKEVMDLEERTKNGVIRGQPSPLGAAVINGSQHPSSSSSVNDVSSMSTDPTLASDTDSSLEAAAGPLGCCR
T3 sequence (Q14690 whole entry): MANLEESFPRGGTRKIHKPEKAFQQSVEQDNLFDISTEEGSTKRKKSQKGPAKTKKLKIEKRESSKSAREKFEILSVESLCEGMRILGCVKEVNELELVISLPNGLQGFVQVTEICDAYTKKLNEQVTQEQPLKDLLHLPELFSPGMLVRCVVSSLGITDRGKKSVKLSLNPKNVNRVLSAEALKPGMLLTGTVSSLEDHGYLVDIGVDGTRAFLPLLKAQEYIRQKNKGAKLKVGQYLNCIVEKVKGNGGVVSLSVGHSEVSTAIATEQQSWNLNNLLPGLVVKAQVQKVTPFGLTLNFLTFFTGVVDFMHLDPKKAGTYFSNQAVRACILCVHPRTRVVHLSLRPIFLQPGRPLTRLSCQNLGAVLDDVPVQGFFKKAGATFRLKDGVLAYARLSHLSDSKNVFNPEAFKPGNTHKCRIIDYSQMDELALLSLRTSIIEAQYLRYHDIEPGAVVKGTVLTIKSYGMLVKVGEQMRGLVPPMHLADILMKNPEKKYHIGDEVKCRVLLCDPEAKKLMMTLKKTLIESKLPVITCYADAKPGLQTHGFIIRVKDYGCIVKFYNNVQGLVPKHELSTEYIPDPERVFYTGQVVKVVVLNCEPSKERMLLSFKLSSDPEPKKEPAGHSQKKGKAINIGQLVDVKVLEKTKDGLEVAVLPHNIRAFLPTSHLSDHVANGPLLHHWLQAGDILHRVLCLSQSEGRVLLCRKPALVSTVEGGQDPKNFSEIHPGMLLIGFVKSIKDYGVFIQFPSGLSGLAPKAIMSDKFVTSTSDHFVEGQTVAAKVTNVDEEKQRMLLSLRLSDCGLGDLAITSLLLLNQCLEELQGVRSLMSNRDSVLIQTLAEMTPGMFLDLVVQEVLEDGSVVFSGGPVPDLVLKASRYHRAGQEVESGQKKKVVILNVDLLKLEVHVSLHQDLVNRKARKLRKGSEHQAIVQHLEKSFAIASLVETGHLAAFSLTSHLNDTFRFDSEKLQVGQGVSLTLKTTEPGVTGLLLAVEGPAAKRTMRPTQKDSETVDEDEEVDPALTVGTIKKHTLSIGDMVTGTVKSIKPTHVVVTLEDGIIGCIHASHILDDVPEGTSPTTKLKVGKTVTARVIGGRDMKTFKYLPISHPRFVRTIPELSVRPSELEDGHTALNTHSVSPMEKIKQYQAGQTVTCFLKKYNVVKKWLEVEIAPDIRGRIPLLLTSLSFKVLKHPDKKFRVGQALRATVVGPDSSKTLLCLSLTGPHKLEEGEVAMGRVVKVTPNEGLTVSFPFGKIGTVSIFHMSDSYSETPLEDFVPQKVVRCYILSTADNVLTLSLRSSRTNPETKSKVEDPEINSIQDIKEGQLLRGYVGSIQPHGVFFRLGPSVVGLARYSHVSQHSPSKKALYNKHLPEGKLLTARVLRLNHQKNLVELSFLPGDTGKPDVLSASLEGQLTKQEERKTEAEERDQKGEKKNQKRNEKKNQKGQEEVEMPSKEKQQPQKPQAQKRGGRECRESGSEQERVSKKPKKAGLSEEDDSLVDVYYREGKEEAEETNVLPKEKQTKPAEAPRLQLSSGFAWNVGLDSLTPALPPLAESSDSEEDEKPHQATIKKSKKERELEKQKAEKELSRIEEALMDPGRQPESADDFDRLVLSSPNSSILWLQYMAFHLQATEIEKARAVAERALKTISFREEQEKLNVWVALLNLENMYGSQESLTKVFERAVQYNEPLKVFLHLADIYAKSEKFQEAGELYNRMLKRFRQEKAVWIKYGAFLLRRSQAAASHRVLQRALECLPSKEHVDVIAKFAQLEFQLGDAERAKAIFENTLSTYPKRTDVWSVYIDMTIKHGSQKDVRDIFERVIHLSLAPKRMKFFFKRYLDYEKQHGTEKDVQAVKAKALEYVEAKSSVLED

For `O=C(CCl)Nc1cc(C(F)(F)F)cc(C(F)(F)F)c1` [KBO3], the “100 Max” value is 17.22 in assay [1]; 83.61 in assay [2] (uniprot P03915, in % (unit assumed)); 19.85 in assay [3] (uniprot Q14690); 36.21 at SNX8 Sorting nexin-8 (uniprot Q9Y5X2); 7.83 in assay [4] (uniprot Q8TC07). In addition, the 100 ave is 12.33 in assay [1]; 83.61 in assay [2] (uniprot P03915); 3.78 in assay [3] (uniprot Q14690); 36.21 on SNX8 Sorting nexin-8 (uniprot Q9Y5X2); 0.88 in assay [4] (uniprot Q8TC07). Also, the 500 ave in assay [1] is reported as 40.875; in assay [3] (uniprot Q14690) it was 46.645; in assay [4] (uniprot Q8TC07), 47.51. The “500 Max” value in assay [1] came to 44.06; in assay [3] (uniprot Q14690, in % (unit assumed)), 49.26; in assay [4] (uniprot Q8TC07), 47.51. The Liganded result in assay [2] was “YES”.
In the case of `COc1ccc2c(c1)CCCN2C(=O)CCl` [KB02], the Liganded entry in assay [1] (MAPK8 Res# 245, uniprot P45983) is “YES”; in assay [2], “YES”; in assay [3] (PDCD11 Res# 361, uniprot Q14690), “YES”; on SNX8 Sorting nexin-8 (SNX8 Res# 200, uniprot Q9Y5X2), “YES”; in assay [4] (TBC1D15 Res# 24, uniprot Q8TC07) it was “YES”. The “100 Max” value in assay [1] was 44.42. In assay [1], this molecule returned a 100 ave of 26.11. Moreover, in assay [1], the 500 ave turned out to be 76.89. In addition, in assay [1], the “500 Max” value turned out to be 78.63.
